These results are taken from article PMC2725291, “Genetic and Molecular Basis of Individual Differences in Human Umami Taste Perception” (PLoS ONE, 2009).

The subject of assay [1] is Mock-transfected HEK cells. The assay can be described thus: Ca2+ imaging in mock-transfected HEK cells. Type of assay: cell-based, human. The settings on record: without the three genes, Gα16-i3 alone, Gα16-i3/TAS1R1 without TAS1R3, Gα16-i3/TAS1R3 without TAS1R1. The method, then: HEK293 cells were cultured at 37°C under a humidified atmosphere containing 5% CO2 in Dulbecco's modified Eagle's medium supplemented with 10% fetal bovine serum. To obtain reproducible Ca^2+ responses, cells were split every 2 days before cells become confluent. Cells were discarded after 2 months of passages and new cells were prepared from frozen-stock. For calcium imaging experiments, cells were seeded onto a 35 mm recording chamber or poly-D-lysine coated 96-well black-wall, clear-bottom recording plates. […] The transfection efficiencies were estimated by visualizing DsRed fluorescence (data not shown) or by immunocytochemistry of TAS1R3, and were typically 50∼55% (Figure S4). […]
Two Ca^2+ imaging systems were used. […] Taste solutions diluted in HBSS were applied sequentially to the cells for 30 s with a peristaltic pump at a flow rate of 1.5 ml/min, and fluorescence images were obtained using a S Fluor ×20/0.75 objective lens (Nikon) via a cooled-CCD camera (C6790, Hamamatsu Photonics) fitted to a TE300 microscope (Nikon). Acquisition and analysis of these fluorescence images used AquaCosmos software (v. 1.3, Hamamatsu Photonics). […] Responses were measured from 30 individual responding cells. […]

The test system of assay [2] is 254 Japanese subjects. The assay can be described thus: Taste recognition threshold measurement (staircase method). Type of assay: in vivo, human. Conditions: for mean recognition threshold by Gaussian fit analysis: center±S.E. of gaussian curve. An excerpt:
A total of 254 healthy, non-obese, non-diabetic Japanese volunteers [male/female: 141/113, age: 20–36, body mass index (BMI); 16.5–24.8] participated in this study. The purpose of the study as well as the methods and procedure were explained to the participants and the patients in this manuscript have given written informed consent. All protocols were approved by the local ethics committee at Kyushu University. Subjects were asked to refrain from consuming alcohol the day before testing, caffeine on the day of testing, and food during the experimentation period. The inclusion criteria were satisfactory state of oral hygiene, non-smoking, regular work, sleep, and meal schedules.
As MSG contains sodium, great care was taken to compare individual sensitivities to MSG relative to NaCl. […] The differences in concentrations in the present study were in 0.3 log steps, which mean step-wise increases in concentration by a factor of 2.0. All solutions were made up in distilled water and used at room temperature. The testing procedure was the staircase-method modified from Pasquet et al.. Each subject evaluated all 7 tastants. The seven series of solutions were presented one after another within a single section. Within each series, the solutions with each 2.0 ml were applied to the whole tongue of each subject with a pipet in order of ascending concentrations. The subjects were asked not to swallow test solutions and rinse their mouth between two solutions with distilled water. The subject was requested to correctly name the taste quality in each series. Once the taste of two successive concentrations was recognized successfully, the subject was given the previous unrecognized concentration (first reversal). The points at which concentration sequence changed from a decrease to an increase or vice versa were designated “reversals”. The procedure was terminated after five reversals, and the threshold was calculated as the mean of the concentration values of the last four reversals.
Student's t-test was used for detection of differences in the mean recognition thresholds between males and females. The χ^2 test was used for checking Hardy-Weinberg Equilibrium (HWE) for the genotype frequencies in samples to control genotyping errors, for detection of differences in genotype and allele frequencies between high and low taste recognition threshold groups. Yates'χ^2 test was used when the number was less than 10. The mean values (the center±S.E. of gaussian curve on X-axis) in the distribution of recognition thresholds defined by TAS1R1/TAS1R3 haplotypes (TAS1R1-372A/TAS1R3-757R homozygotes, TAS1R1-372T/TAS1R3-757R homozygotes, homo- and heterozygotes containing TAS1R3-757C) were calculated using gauss fit function of Origin 5.0 (OriginLab Corp). For Ca^2+ imaging analysis, data were normalized to response to 10 µM ISO, and mean values (±S.E.) were calculated from 10∼18 independent analyses. EC50 values were calculated from individual cumulative concentration-response data using sigmoid fit functions of Origin 5.0. One factor ANOVAs were conducted for detection of differences in the distributions of recognition thresholds for umami substances among 3 groups defined by TAS1R1/TAS1R3 haplotypes, and in the responses to 5, 20 and 50 mM MSG or 0.3, 5 and 50 mM M+I among TAS1R1/TAS1R3 variants in Ca^2+ imaging analysis. When the ANOVA was significant, post-hoc Student's t-test or Fisher's PLSD test was performed to compare individual means at each umami compound or concentration. Significance level was 0.05.

Assay [3] deals with 254 Japanese subjects. More on the design: method as in PMID 11839608. The settings on record: humans; cited from earlier work.

Regarding `N[C@@H](CCC(=O)O)C(=O)[O-].[Na+]` [MSG, monosodium glutamate], the “Ca2+ response of mock-transfected HEK cells” value in assay [1] was “did not respond”. Besides, the “mean recognition threshold by Gaussian fit analysis” value came out at 7.51 ± 0.44 mM in the assay on 254 Japanese subjects [2] (AR homozygotes (372A/757R)); 4.38 ± 0.29 mM in the assay on 254 Japanese subjects [2] (TR homozygotes (372T/757R)); 8.60 ± 0.20 mM with 254 Japanese subjects [2] (homo- and heterozygotes containing TAS1R3-757C). In addition, the “mean (±S.E.) recognition threshold” value in the assay on 254 Japanese subjects [2] (AR homozygotes (372A/757R, n = 84)) stood at 6.23 ± 0.45 mM; in the assay on 254 Japanese subjects [2] (TR homozygotes (372T/757R, n = 37)), 4.65 ± 0.47 mM; with 254 Japanese subjects [2] (all subjects (254 Japanese, both genders)), 7.66 ± 0.43 mM; with 254 Japanese subjects [2] (homo- and heterozygotes containing TAS1R3-757C (n = 39)) it was 8.43 ± 0.98 mM. The “difference of mean recognition thresholds among 3 groups divided by TAS1R1-A372T and TAS1R3-R757C haplotypes” value in the assay on 254 Japanese subjects [2] (TR<AR<TAS1R3-757C) is given as 2∼3 fold. Also, the mean recognition threshold turned out to be 6.91 ± 0.62 mM in the assay on 254 Japanese subjects [2] (female subjects) and 8.27 ± 0.60 mM in the assay on 254 Japanese subjects [2] (male subjects). In addition, the “difference of taste thresholds between taster and hypotaster groups” value in the assay on 254 Japanese subjects [3] is given as “about 5 fold”.
